This passage reports Ki results from US8501446B2 (Vertex Pharmaceuticals Incorporated, priority 2004, dated 2013).

A value given as a limit tells only on which side of the number the result lay.

Common to all, as to format: biochemical
One assay addresses T1, JAK3 (Homo sapiens, UniProt P52333).
T1 sequence (P52333 1-1124): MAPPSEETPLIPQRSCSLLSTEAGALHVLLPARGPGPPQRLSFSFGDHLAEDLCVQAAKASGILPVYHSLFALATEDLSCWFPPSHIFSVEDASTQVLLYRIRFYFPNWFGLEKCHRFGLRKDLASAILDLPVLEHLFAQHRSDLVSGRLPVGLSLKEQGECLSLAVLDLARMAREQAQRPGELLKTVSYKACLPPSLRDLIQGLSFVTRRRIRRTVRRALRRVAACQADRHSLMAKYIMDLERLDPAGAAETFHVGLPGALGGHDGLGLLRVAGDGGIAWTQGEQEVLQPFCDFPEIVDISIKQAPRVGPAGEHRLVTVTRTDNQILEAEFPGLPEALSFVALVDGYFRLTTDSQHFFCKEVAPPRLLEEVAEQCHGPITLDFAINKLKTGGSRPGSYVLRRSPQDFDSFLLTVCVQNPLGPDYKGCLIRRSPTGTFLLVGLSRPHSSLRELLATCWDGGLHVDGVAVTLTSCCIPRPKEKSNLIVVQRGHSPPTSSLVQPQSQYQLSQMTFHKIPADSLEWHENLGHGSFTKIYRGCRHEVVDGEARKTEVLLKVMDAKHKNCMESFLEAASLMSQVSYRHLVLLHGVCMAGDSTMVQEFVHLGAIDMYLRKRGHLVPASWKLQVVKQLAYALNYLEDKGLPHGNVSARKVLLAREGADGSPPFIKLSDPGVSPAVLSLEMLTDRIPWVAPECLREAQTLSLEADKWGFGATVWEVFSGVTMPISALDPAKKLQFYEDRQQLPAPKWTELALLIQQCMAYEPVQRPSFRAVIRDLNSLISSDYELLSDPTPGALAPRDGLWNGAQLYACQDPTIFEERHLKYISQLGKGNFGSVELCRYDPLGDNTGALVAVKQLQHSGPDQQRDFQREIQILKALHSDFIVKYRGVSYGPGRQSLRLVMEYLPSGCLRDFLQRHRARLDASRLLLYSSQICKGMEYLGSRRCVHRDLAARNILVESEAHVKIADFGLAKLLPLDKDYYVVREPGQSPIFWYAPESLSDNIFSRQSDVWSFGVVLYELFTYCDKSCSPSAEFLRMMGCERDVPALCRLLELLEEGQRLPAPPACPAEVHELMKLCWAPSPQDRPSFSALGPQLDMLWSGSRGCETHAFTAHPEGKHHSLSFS
In words: JAK3 inhibition assay (standard radioactive enzyme assay). The note with it: average Ki if more than one value determined. How it is done:
(§1) Compounds were screened for their ability to inhibit JAK3 using a standard radioactive enzyme assay. 1.5 μL/well of a DMSO stock containing serial dilutions of a compound of the present invention (concentrations ranging from 667 μM to 46 nM) was placed in a 96 well polycarbonate plate. 50 μL per well of kinase buffer (100 mM HEPES (pH 7.4), 10 mM MgCl2, 25 mM NaCl, 1 mM DTT, and 0.01% bovine serum albumin (BSA)) containing 2 μM poly(Glu)4Tyr and 10 μM ATP was also added to the plate. To initiate the reaction, 50 μL kinase buffer containing 2 nM JAK3 enzyme was added. Final ATP concentration was 5 μM [γ-^33P] ATP (200 μCi ^33P ATP/μmol ATP (Perkin Elmer, Cambridge, Mass.). After 20 minutes at room temperature (25° C.), the reaction was stopped by adding 50 μL 20% trichloroacetic acid (TCA)/0.4 mM ATP to each well. The entire content of each well was then transferred to a 96 well glass fiber filter plate using a TomTek Cell Harvester. After washing, 60 μL scintillation fluid was added and ^33P incorporation detected using a Perkin Elmer TopCount. After removing mean background values for all of the data points the data was fit using Prism software to obtain a Ki(app). Inhibition of JAK2 was measured as above except that final poly(Glu)4Tyr concentration was 15 μM and final ATP concentration was 12 μM.

The next assay has as its target JAK2 (Homo sapiens, UniProt O60674). In words: JAK2 inhibition assay (radioactive enzyme assay, as for JAK3). The note with it: average Ki if more than one value determined. How it is done: as §1
The target of another assay is T2, ROCK I (AA 6-553) (Homo sapiens, UniProt Q13464).
T2 construct: ROCK I (AA 6-553)
T2 sequence (Q13464 6-553, species assumed): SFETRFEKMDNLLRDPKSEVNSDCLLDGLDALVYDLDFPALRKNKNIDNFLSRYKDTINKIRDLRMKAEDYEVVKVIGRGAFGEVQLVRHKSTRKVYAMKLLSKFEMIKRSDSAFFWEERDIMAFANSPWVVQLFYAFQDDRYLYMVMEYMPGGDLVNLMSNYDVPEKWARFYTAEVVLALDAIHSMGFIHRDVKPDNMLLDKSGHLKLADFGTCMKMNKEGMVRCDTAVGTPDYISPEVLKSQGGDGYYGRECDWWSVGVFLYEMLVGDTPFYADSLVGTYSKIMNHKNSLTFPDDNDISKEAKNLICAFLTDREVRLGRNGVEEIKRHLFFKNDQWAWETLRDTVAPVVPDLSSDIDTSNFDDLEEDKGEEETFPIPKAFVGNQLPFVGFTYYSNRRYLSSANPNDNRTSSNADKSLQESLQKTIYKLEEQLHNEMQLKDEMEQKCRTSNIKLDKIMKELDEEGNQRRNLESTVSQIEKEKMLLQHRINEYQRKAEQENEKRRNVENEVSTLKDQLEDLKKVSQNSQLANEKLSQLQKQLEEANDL
In words: ROCK inhibition assay, standard coupled enzyme system ("Enzyme"). The note with it: enzyme-linked assay. In outline:
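ROCK I (AA 6-553) at 45 nM and 30 °C with 45 μM ATP and 200 μM peptide, in 100 mM HEPES pH 7.5, 10 mM MgCl2, 25 mM NaCl, 2 mM DTT, 1.5% DMSO. ADP output read by a PK/LDH coupled system: 2.5 mM PEP, 350 μM NADH, 30 μg/ml PK, 10 μg/ml LDH.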

JAK2, sequence (O60674 whole entry, species assumed, the tested form may be a part): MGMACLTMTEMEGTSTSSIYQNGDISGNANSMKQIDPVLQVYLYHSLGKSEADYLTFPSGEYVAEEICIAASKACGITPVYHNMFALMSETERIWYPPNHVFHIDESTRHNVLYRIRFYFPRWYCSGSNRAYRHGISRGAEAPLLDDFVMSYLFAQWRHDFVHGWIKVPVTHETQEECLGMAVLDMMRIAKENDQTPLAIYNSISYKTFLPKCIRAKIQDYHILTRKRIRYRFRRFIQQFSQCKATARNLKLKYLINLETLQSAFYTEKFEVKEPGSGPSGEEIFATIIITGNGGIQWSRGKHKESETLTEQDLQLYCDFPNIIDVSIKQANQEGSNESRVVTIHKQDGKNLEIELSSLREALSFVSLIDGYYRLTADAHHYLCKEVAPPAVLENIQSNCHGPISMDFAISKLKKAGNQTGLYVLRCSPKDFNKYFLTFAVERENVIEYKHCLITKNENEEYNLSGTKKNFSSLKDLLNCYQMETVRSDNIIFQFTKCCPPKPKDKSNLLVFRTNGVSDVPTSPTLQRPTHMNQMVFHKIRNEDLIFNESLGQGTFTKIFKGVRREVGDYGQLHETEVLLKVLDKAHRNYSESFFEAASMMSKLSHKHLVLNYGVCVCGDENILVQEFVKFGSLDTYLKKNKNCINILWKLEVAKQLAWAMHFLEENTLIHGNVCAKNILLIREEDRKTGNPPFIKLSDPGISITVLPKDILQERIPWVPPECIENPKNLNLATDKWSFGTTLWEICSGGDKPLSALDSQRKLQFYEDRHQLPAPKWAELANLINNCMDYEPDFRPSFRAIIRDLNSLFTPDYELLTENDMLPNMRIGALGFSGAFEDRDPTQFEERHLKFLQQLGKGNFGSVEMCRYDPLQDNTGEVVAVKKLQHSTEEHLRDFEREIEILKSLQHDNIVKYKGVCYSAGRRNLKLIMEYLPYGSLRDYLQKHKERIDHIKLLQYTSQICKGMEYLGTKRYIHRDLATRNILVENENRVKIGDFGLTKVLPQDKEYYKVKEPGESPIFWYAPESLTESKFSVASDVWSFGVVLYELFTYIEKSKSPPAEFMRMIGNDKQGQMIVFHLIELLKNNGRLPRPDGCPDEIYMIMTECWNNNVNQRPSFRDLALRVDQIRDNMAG

Broadly, the Ki is a dissociation constant, usually derived from enzyme kinetics or from competition with a known ligand. For the compound `CC(=O)Nc1cc(-c2c[nH]c3ncc(Cl)cc23)nc(N2C[C@@H](C)N(C(C)=O)[C@@H](C)C2)c1` [Compound 160], the Ki on JAK3 was less than 500 nM; at JAK2, less than 500 nM; on ROCK I (AA 6-553), 500 to 5000 nM.
For the compound `CC(=O)N1[C@H](C)CN(c2cccc(-c3c[nH]c4ncc(OCCN(C)C)cc34)n2)C[C@@H]1C` [Compound 94], the Ki at JAK3, at JAK2 and on ROCK I (AA 6-553) was 500 to 5000 nM throughout.
Regarding `CC(=O)N1[C@H](C)CN(c2cccc(-c3c[nH]c4ncc(Cl)cc34)c2)C[C@@H]1C` [Compound 146], the results for the Ki at JAK3, on JAK2 and on ROCK I (AA 6-553) were less than 500 nM, less than 500 nM and 500 to 5000 nM, respectively.
Turning to `Clc1cnc2[nH]cc(-c3cccc4cccnc34)c2c1` [Compound 202], the Ki on JAK3, on JAK2 and at ROCK I (AA 6-553) was 500 to 5000 nM each time.
`NC(=O)c1ccc(-c2c[nH]c3ncc(Cl)cc23)nc1` [Compound 107]: the Ki at JAK3 is less than 500 nM; on JAK2 it was less than 500 nM; at ROCK I (AA 6-553) it was 500 to 5000 nM.
For the compound `CC(=O)Nc1cnc2[nH]cc(-c3cccc(N4CCCN(C(C)=O)CC4)n3)c2c1` [Compound 140], the Ki on JAK3 was less than 500 nM; at JAK2 it was less than 500 nM; at ROCK I (AA 6-553), 500 to 5000 nM.
On to `Clc1cnc2[nH]cc(-c3ccccn3)c2c1` [Compound 184], for which the inhibitory constant (Ki) on JAK3 is less than 500 nM; at JAK2, 500 to 5000 nM; on ROCK I (AA 6-553), 500 to 5000 nM.
As for `CC(C)[C@H](CO)Nc1cccc(-c2c[nH]c3ncc(Cl)cc23)n1` [Compound 135], the Ki at JAK3, on JAK2 and at ROCK I (AA 6-553) was less than 500 nM each time.
On to `CC(=O)N1[C@H](C)CN(c2cccc(-c3c[nH]c4ncc(OCCCN(C)C)cc34)n2)C[C@@H]1C` [Compound 194], for which the Ki on JAK3 was less than 500 nM; at JAK2 it was less than 500 nM; at ROCK I (AA 6-553), 500 to 5000 nM.
Turning to `CCC(=O)Nc1cnc2[nH]cc(-c3cccc(N4CCCN(C(C)=O)CC4)n3)c2c1` [Compound 141], the figures for the Ki on JAK3, at JAK2 and on ROCK I (AA 6-553) were less than 500 nM, less than 500 nM and 500 to 5000 nM, respectively.
On to `O=C(O)c1cc(NCc2ccccc2)cc(-c2c[nH]c3ncc(Cl)cc23)c1` [Compound 147], for which the Ki was less than 500 nM at JAK3, less than 500 nM at JAK2 and 500 to 5000 nM on ROCK I (AA 6-553).
As for `CCCC(=O)N1CCN(c2cccc(-c3c[nH]c4ncc(Cl)cc34)n2)CC1` [Compound 86], the Ki at JAK3 is less than 500 nM; on JAK2, less than 500 nM; at ROCK I (AA 6-553), 500 to 5000 nM.
On to `CC(=O)N1[C@H](C)CN(c2cccc(-c3c[nH]c4ncc(O)cc34)n2)C[C@@H]1C` [Compound 77], for which the Ki at JAK3 was less than 500 nM; on JAK2, less than 500 nM; at ROCK I (AA 6-553), 500 to 5000 nM.
Turning to `COc1cnc2[nH]cc(-c3cccc(N4CCCN(C(C)=O)CC4)n3)c2c1` [Compound 112], the inhibition constant (Ki) at JAK3 is less than 500 nM; on JAK2, less than 500 nM; at ROCK I (AA 6-553), 500 to 5000 nM.
For the compound `CC(=O)N1CCCN(c2cccc(-c3c[nH]c4ncc(C(=O)O)cc34)n2)CC1` [Compound 126], the Ki at JAK3 is 500 to 5000 nM; at JAK2, greater than 5000 nM; at ROCK I (AA 6-553), 500 to 5000 nM.
Turning to `CC(=O)N1[C@H](C)CN(c2cccc(-c3c[nH]c4ncc(C(=O)OCC(C)C)cc34)n2)C[C@@H]1C` [Compound 74], the inhibitory constant (Ki) on JAK3, at JAK2 and on ROCK I (AA 6-553) was less than 500 nM each time.
For the compound `NC(=O)c1ccc(-c2c[nH]c3ncc(Cl)cc23)cc1` [Compound 105], the Ki on JAK3 was less than 500 nM; at JAK2, less than 500 nM; on ROCK I (AA 6-553), 500 to 5000 nM.
`C=CC(=O)Nc1cnc2[nH]cc(-c3cccc(N4CCCN(C(=O)CC#N)CC4)n3)c2c1` [Compound 138]: the Ki was less than 500 nM at JAK3, less than 500 nM at JAK2 and 500 to 5000 nM at ROCK I (AA 6-553).
For `Nc1cc(C(=O)O)cc(-c2c[nH]c3ncc(Cl)cc23)c1` [Compound 148], the figures for the Ki at JAK3, at JAK2 and at ROCK I (AA 6-553) were less than 500 nM, 500 to 5000 nM and less than 500 nM, respectively.
Consider `Clc1cnc2[nH]cc(-c3ccc4ccccc4n3)c2c1` [Compound 195], for which the inhibition constant (Ki) on JAK3 was less than 500 nM; on JAK2, 500 to 5000 nM; on ROCK I (AA 6-553), 500 to 5000 nM.
Consider `CC(=O)N1[C@H](C)CN(c2cc(-c3nnn[nH]3)cc(-c3c[nH]c4ncc(Cl)cc34)n2)C[C@@H]1C` [Compound 111], for which the inhibition constant Ki at JAK3 was less than 500 nM; at JAK2, less than 500 nM; on ROCK I (AA 6-553), 500 to 5000 nM.
For `CC(C)Oc1cccc(-c2c[nH]c3ncc(Cl)cc23)c1` [Compound 143], the figures for the inhibition constant Ki at JAK3, at JAK2 and on ROCK I (AA 6-553) were less than 500 nM, 500 to 5000 nM and 500 to 5000 nM, respectively.
Regarding `CC(=O)N1[C@H](C)CN(c2cccc(-c3c[nH]c4ncc(C(=O)N5CCOCC5)cc34)n2)C[C@@H]1C` [Compound 51], the Ki at JAK3, on JAK2 and at ROCK I (AA 6-553) was 500 to 5000 nM throughout.
Consider `CC(=O)N1CCCN(c2cccc(-c3c[nH]c4ncc(C)cc34)n2)CC1` [Compound 40], for which the Ki at JAK3 was less than 500 nM; at JAK2 it was less than 500 nM; on ROCK I (AA 6-553), 500 to 5000 nM.
Take `COc1cccc(-c2c[nH]c3ncc(Cl)cc23)n1` [Compound 201]: the Ki at JAK3 was less than 500 nM; on JAK2, less than 500 nM; at ROCK I (AA 6-553), 500 to 5000 nM.
Regarding `CN1C2CCC1CN(c1cccc(-c3c[nH]c4ncc(Cl)cc34)n1)CC2` (stereo not drawn) [Compound 82], the Ki on JAK3, at JAK2 and on ROCK I (AA 6-553) was less than 500 nM throughout.
Turning to `CC(=O)N1[C@H](C)CN(c2cccc(-c3c[nH]c4ncc(NC(=O)Oc5ccc(C)cc5)cc34)n2)C[C@@H]1C` [Compound 61], the Ki on JAK3 was less than 500 nM; at JAK2 it was less than 500 nM; on ROCK I (AA 6-553), 500 to 5000 nM.
For the compound `C=CC(=O)Nc1cnc2[nH]cc(-c3cccc(N4CCCN(C(C)=O)CC4)n3)c2c1` [Compound 139], the Ki at JAK3 is less than 500 nM; on JAK2, less than 500 nM; on ROCK I (AA 6-553) it was 500 to 5000 nM.
For `CC(=O)N1[C@H](C)CN(c2cccc(-c3c[nH]c4ncc(NC(=O)c5ccccc5Cl)cc34)n2)C[C@@H]1C` [Compound 173], the Ki on JAK3, at JAK2 and at ROCK I (AA 6-553) was less than 500 nM in each case.
As to `CC(C)CC(=O)N1CCN(c2cccc(-c3c[nH]c4ncc(Cl)cc34)n2)CC1` [Compound 89], the inhibition constant Ki on JAK3 is less than 500 nM; on JAK2, less than 500 nM; on ROCK I (AA 6-553) it was 500 to 5000 nM.
Take `CC(=O)N1[C@H](C)CN(c2cccc(-c3c[nH]c4ncc(C(=O)NCCCN5CCN(C)CC5)cc34)n2)C[C@@H]1C` [Compound 109]: the inhibition constant Ki on JAK3 is less than 500 nM; on JAK2, less than 500 nM; on ROCK I (AA 6-553), 500 to 5000 nM.
Turning to `CC(C)(O)c1cccc(-c2c[nH]c3ncc(Cl)cc23)n1` [Compound 203], the values for the Ki on JAK3, on JAK2 and at ROCK I (AA 6-553) were less than 500 nM, less than 500 nM and 500 to 5000 nM, respectively.
For the compound `CC(=O)N1CCCN(c2cc(C#N)cc(-c3c[nH]c4ncc(Cl)cc34)n2)CC1` [Compound 149], the Ki on JAK3 was less than 500 nM; on JAK2, less than 500 nM; at ROCK I (AA 6-553) it was 500 to 5000 nM.
